Source: patent US11459312B2, “Sulphur substituted 3-oxo-2,3-dihydropyridazine-4-carboxamides” (Bayer Aktiengesellschaft, priority 2017, dated 2022)

What follows are compounds tested against T1, AHR (Homo sapiens, UniProt P35869) (assay: In vitro assay 1: AHR-luc transactivation assay, antagonism in human cell line (U87 glioblastoma cells, kynurenic acid prestimulated)). Details: firefly luciferase DRE reporter, 150 μM kynurenic acid, 20 hours, read-out: Assay 1: AHR-luc Hum Antagonism IC50.
T1 sequence (P35869 11-848): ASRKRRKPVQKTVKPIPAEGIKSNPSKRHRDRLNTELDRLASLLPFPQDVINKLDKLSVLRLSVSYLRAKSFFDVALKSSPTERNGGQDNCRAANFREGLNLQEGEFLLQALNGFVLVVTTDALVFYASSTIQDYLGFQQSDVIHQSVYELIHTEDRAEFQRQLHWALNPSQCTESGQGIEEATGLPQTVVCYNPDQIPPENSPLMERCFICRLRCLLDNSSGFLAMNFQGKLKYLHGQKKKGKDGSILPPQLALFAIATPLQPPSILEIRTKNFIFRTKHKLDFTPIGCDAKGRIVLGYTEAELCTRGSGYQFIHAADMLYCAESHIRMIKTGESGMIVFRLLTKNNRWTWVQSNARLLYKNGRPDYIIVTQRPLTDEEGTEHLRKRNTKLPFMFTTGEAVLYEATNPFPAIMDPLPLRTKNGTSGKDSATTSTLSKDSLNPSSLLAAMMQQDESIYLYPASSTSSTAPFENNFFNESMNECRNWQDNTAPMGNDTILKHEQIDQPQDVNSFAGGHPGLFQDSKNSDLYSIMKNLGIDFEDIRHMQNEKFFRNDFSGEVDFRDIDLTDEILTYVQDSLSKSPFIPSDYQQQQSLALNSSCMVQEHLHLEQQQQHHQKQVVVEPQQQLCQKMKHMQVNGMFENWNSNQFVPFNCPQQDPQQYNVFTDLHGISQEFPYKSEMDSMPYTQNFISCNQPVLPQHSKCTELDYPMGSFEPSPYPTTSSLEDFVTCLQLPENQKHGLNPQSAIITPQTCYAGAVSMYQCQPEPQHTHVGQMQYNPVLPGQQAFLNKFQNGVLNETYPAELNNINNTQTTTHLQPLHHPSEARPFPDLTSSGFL
Type: cell-based
Parameters: U87 glioblastoma cells (ATCC) endogenously expressing AHR; host or cells: U87 glioblastoma cells, stably transfected with DRE-firefly luciferase and renilla reporter constructs only
Experimental: Transactivation Assay in Human Cell Line (In Vitro Assays 1 and 2)
Transactivation assays were carried out in U87 glioblastoma cells (ATCC) endogenously expressing AHR. In addition the cells were stably transfected with an AHR inducible firefly luciferase reporter gene construct that carried AHR-binding sites (DRE) in its promoter and a renilla reporter gene construct with constitutively active promoter. Kynurenic acid is an endogenous AHR activating ligand and was used to prestimulate test cells prior to testing the antagonistic properties of compounds.
In Vitro Assay 1: Antagonism in Human Cell Line
Cells in medium (tryptophan free RPMI, 1% FCS, 2 mM Glutamine) supplemented with 150 μM kynurenic acid were grown for 20 hours in absence (negative control) or presence of increasing concentrations of test compounds (typical dilutions: […], 0.25 nmol/L, 0.89 nmol/L; 3.1 nmol/L, 11 nmol/L, 38 nmol/L, 130 nmol/L, 470 nmol/L, 1.6 μmol/L, 5.7 μmol/L and 20 μmol/L in duplicates). As positive inhibition control cells supplemented with 150 μM kynurenic acid were incubated in presence of 5 μM Staurosporin. Normalization was done by positive and negative controls.
Firefly luciferase and Renilla activity was determined by the DualGlo Luciferase Assay System (Promega, #2920). Renilla activity was used to assess toxic effects of compounds.

Structure (SMILES) | IC50 [nM]
O=C(N[C@@H]1C[S+]([O-])C[C@@H]1O)c1cc(-c2ccc(Cl)cc2)nn(-c2cccc(F)c2)c1=O (single isomer, unassigned) [Example 29, 6-(4-chlorophenyl)-2-(3-fluorophenyl)-N-[(cis)-4-hydroxy-1-oxidotetrahydro-thiophen-3-yl]-3-oxo-2,3-dihydropyridazine-4-carboxamide] | 301
O=C(N[C@@H]1C[S+]([O-])C[C@@H]1O)c1cc(-c2ccc(C(F)(F)F)cc2)nn(-c2cccnc2)c1=O (single isomer, unassigned) [Example 34, N-[(cis)-4-hydroxy-1-oxidotetrahydro-thiophen-3-yl]-3-oxo-2-(pyridin-3-yl)-6-[4-(trifluoromethyl)phenyl]-2,3-dihydropyridazine-4-carboxamide] | 78.8
O=C(N[C@@H]1C[S+]([O-])C[C@@H]1O)c1cc(-c2ccc(C(F)(F)F)cc2)nn(-c2cccnc2)c1=O (single isomer, unassigned) [Example 35, N-[(cis)-4-hydroxy-1-oxidotetrahydro-thiophen-3-yl]-3-oxo-2-(pyridin-3-yl)-6-[4-(trifluoromethyl)phenyl]-2,3-dihydropyridazine-4-carboxamide] | 272
O=C(N[C@@H]1C[S+]([O-])C[C@@H]1O)c1cc(-c2ccc(C(F)(F)F)cc2)nn(-c2cccnc2)c1=O (single isomer, unassigned) [Example 36, N-[(cis)-4-hydroxy-1-oxidotetrahydro-thiophen-3-yl]-3-oxo-2-(pyridin-3-yl)-6-[4-(trifluoromethyl)phenyl]-2,3-dihydropyridazine-4-carboxamide] | 295
O=C(N[C@@H]1C[S+]([O-])C[C@@H]1O)c1cc(-c2ccc(C(F)(F)F)cc2)nn(-c2cccnc2)c1=O (single isomer, unassigned) [Example 37, N-[(cis)-4-hydroxy-1-oxidotetrahydro-thiophen-3-yl]-3-oxo-2-(pyridin-3-yl)-6-[4-(trifluoromethyl)phenyl]-2,3-dihydropyridazine-4-carboxamide] | 150
C[C@@H](CS(C)(=N)=O)NC(=O)c1cc(-c2ccc(C(F)(F)F)cc2)nn(-c2cnn(C)c2)c1=O (single isomer, unassigned) [Example 39] | 133
C[C@@H](CS(C)(=N)=O)NC(=O)c1cc(-c2ccc(C(F)(F)F)cc2)nn(-c2cnn(C)c2)c1=O (single isomer, unassigned) [Example 40] | 80.3
N=S1(=O)C[C@H](O)[C@H](NC(=O)c2cc(-c3ccc(Cl)cc3)nn(-c3cccc(F)c3)c2=O)C1 (single isomer, unassigned) [Example 43, 6-(4-chlorophenyl)-2-(3-fluorophenyl)-N-[(cis)-4-hydroxy-1-imino-1-oxidotetrahydro-1H-1lambda4-thiophen-3-yl]-3-oxo-2,3-dihydropyridazine-4-carboxamide] | 43.8
N=S1(=O)C[C@H](O)[C@H](NC(=O)c2cc(-c3ccc(Cl)cc3)nn(-c3cccc(F)c3)c2=O)C1 (single isomer, unassigned) [Example 46, 6-(4-chlorophenyl)-2-(3-fluorophenyl)-N-[(cis)-4-hydroxy-1-imino-1-oxidotetrahydro-1H-1lambda4-thiophen-3-yl]-3-oxo-2,3-dihydropyridazine-4-carboxamide] | 103
CS(=N)(=O)CCNC(=O)c1cc(-c2ccc(Cl)cc2)nn(-c2cccc(F)c2)c1=O (single isomer, unassigned) [Example 53, 6-(4-Chlorophenyl)-2-(3-fluorophenyl)-N-[2-(S-methylsulfonimidoyl)ethyl]-3-oxo-2,3-dihydropyridazine-4-carboxamide] | 843
CS(=N)(=O)CCNC(=O)c1cc(-c2ccc(Cl)cc2)nn(-c2cccc(F)c2)c1=O (single isomer, unassigned) [Example 54, 6-(4-Chlorophenyl)-2-(3-fluorophenyl)-N-[2-(S-methylsulfonimidoyl)ethyl]-3-oxo-2,3-dihydropyridazine-4-carboxamide] | 581
O=C(N[C@H]1CS(=O)(=O)C[C@H]1O)c1cc(-c2ccc(Cl)cc2)nn(-c2cccc(F)c2)c1=O (single isomer, unassigned) [Example 56, 6-(4-Chlorophenyl)-2-(3-fluorophenyl)-N-[(cis)-4-hydroxy-1,1-dioxidotetrahydrothiophen-3-yl]-3-oxo-2,3-dihydropyridazine-4-carboxamide] | 65.3
O=C(N[C@@H]1C[S+]([O-])C[C@@H]1O)c1cc(-c2ccc(Cl)cc2)nn(-c2cccc(F)c2)c1=O (single isomer, unassigned; (+)) [Example 27, (+)-6-(4-chlorophenyl)-2-(3-fluorophenyl)-N-[(cis)-4-hydroxy-1-oxidotetrahydro-thiophen-3-yl]-3-oxo-2,3-dihydropyridazine-4-carboxamide] | 93.5
O=C(N[C@@H]1C[S+]([O-])C[C@@H]1O)c1cc(-c2ccc(Cl)cc2)nn(-c2cccc(F)c2)c1=O (single isomer, unassigned; (+)) [Example 31, (+)-6-(4-chlorophenyl)-2-(3-fluorophenyl)-N-[(cis)-4-hydroxy-1-oxidotetrahydro-thiophen-3-yl]-3-oxo-2,3-dihydropyridazine-4-carboxamide] | 145
O=C(N[C@@H]1C[S+]([O-])C[C@@H]1O)c1cc(-c2ccc(Cl)cc2)nn(-c2cccc(F)c2)c1=O (single isomer, unassigned; (-)) [Example 28, (−)-6-(4-chlorophenyl)-2-(3-fluorophenyl)-N-[(cis)-4-hydroxy-1-oxidotetrahydro-thiophen-3-yl]-3-oxo-2,3-dihydropyridazine-4-carboxamide] | 13.4
O=C(N[C@@H]1C[S+]([O-])C[C@@H]1O)c1cc(-c2ccc(Cl)cc2)nn(-c2cccc(F)c2)c1=O (single isomer, unassigned; (-)) [Example 30, (−)-6-(4-chlorophenyl)-2-(3-fluorophenyl)-N-[(cis)-4-hydroxy-1-oxidotetrahydro-thiophen-3-yl]-3-oxo-2,3-dihydropyridazine-4-carboxamide] | 210
O=C(N[C@@H]1CCS(=O)(=O)C1)c1cc(-c2ccc(Cl)cc2)nn(-c2cccc(F)c2)c1=O (stereo in doubt) [Example 58, 6-(4-Chlorophenyl)-N-(1,1-dioxidotetrahydrothiophen-3-yl)-2-(3-fluorophenyl)-3-oxo-2,3-dihydropyridazine-4-carboxamide] | 145
CSC[C@H](C)NC(=O)c1cc(-c2ccc(Cl)cc2)nn(-c2cccc(F)c2)c1=O [Example 1, 6-(4-Chlorophenyl)-2-(3-fluorophenyl)-N-[(2S)-1-(methylsulfanyl)propan-2-yl]-3-oxo-2,3-dihydropyridazine-4-carboxamide] | 52.6
C[C@@H](CS(C)(=O)=O)NC(=O)c1cc(-c2ccc(Cl)cc2)nn(-c2cccc(F)c2)c1=O [Example 2, 6-(4-Chlorophenyl)-2-(3-fluorophenyl)-N-[(2S)-1-(methylsulfonyl)propan-2-yl]-3-oxo-2,3-dihydropyridazine-4-carboxamide] | 147
CSC[C@H](C)NC(=O)c1cc(-c2ccc(C(F)(F)F)cc2)nn(-c2cnn(C)c2)c1=O [Example 9, 2-(1-Methyl-1H-pyrazol-4-yl)-N-[(2S)-1-(methylsulfanyl)propan-2-yl]-3-oxo-6-[4-(trifluoromethyl)phenyl]-2,3-dihydropyridazine-4-carboxamide] | 6.99
C[C@@H](CS(C)(=O)=O)NC(=O)c1cc(-c2ccc(C(F)(F)F)cc2)nn(-c2cnn(C)c2)c1=O [Example 22, 2-(1-Methyl-1H-pyrazol-4-yl)-N-[(2S)-1-(methylsulfonyl)propan-2-yl]-3-oxo-6-[4-(trifluoromethyl)phenyl]-2,3-dihydropyridazine-4-carboxamide] | 21.9
